Patent publication US8633315B2, “Substituted hydroxyethyl amine compounds as beta-secretase modulators and methods of use” (Amgen Inc., priority 2007, dated 2014)

What was measured:
[1] = tested on: Cells stably expressing Amyloid Precursor Protein (APP); test: In vitro BACE cell-based assay (HEK cell assay): Aβ40 in conditioned medium by sandwich ELISA; details: Aβ40 in conditioned medium after 24 h incubation
Experimental: In Vitro BACE Cell-Based Assay:
The cell-based assay measures inhibition or reduction of Aβ40 in conditioned medium of test compound treated cells expressing amyloid precursor protein.
Cells stably expressing Amyloid Precursor Protein (APP) were plated at a density of 40K cells/well in 96 well plates (Costar). The cells were cultivated for 24 hours at 37° C. and 5% CO2 in DMEM supplemented with 10% FBS. The test compounds were then added to cells in 10-point dose response concentrations with the starting concentration being either 100 μM or 10 μM. The compounds were diluted from stock solutions in DMSO and the final DMSO concentration of the test compounds on cells was 0.1%. After 24 h of incubation with the test compounds the supernatant conditioned media was collected and the Aβ 40 levels were determined using a sandwich ELISA. The IC50 of the compound was calculated from the percent of control or percent inhibition of Aβ 40 as a function of the concentration of the test compound.
The sandwich ELISA to detect Aβ 40 was performed in 96 well microtiter plates, which were pre-treated with goat anti-rabbit IgG (Pierce). The capture and detecting antibody pair that were used to detect Aβ 40 from cell supernatants were affinity purified pAb40 (Biosource) and biotinylated 6E10 (Signet Labs Inc.), respectively. The optimal concentration for the pAb40 antibody was 3 μg/ml in Superblock/TBS (Pierce) that was supplemented with 0.05% Tween 20 (Sigma). Optimal concentration for the detection antibody 6E10-biotinylated was 0.5 μg/ml in Superblock/TBS (Pierce) that had been supplemented with 2% normal goat serum and 2% normal mouse serum.
Cellular supernatants were incubated with the capture antibody for 3 h at 4° C., followed by 3 wash steps in TBS-tween (0.05%). The detecting antibody incubation was for 2 h at 4° C., again followed by the wash steps as described previously. The final readout of the ELISA is Time-Resolved Fluorescence (counts per minute) using Delfia reagents Streptavidin-Europium and Enhancement solutions (Perkin Elmer) and the Victor 2 multilabel counter (Perkin Elmer).
Of the compounds tested, in-the cell-based assay, data for each of Examples 33-156 is provided in Table 1 and Examples 208-246 are provided in Table 4.

BACE1 = BACE1 (Homo sapiens, UniProt P56817); test: In vitro enzymatic BACE FRET (fluorescence resonance energy transfer) assay; format: biochemical
Experimental: In Vitro Enzymatic BACE FRET (Fluorescence Resonance Energy Transfer) Assay (Enzyme Assay Data in Table 1)
The assay buffer used in this screen is 0.05 M acetate, pH 4.2, 10% DMSO final, 100 uM genapol (which is a nonionic detergent, below its Critical Micelle Concentration). […] The assay is effectively started by the addition of FRET substrate (50 nM) and the combination is incubated for one hour. The FRET assay is terminated with by addition of Tris buffer, which raises the pH to neutrality, and the fluorescence is determined. The FRET substrate is a peptide with commercially available fluorophore and quencher, on opposite sides of the BACE cleavage site. Proteolytic cleavage of the FRET substrate releases quenching of fluorescence (excitation […] and emission […]).

Sequence of BACE1 (P56817 46-501, species assumed): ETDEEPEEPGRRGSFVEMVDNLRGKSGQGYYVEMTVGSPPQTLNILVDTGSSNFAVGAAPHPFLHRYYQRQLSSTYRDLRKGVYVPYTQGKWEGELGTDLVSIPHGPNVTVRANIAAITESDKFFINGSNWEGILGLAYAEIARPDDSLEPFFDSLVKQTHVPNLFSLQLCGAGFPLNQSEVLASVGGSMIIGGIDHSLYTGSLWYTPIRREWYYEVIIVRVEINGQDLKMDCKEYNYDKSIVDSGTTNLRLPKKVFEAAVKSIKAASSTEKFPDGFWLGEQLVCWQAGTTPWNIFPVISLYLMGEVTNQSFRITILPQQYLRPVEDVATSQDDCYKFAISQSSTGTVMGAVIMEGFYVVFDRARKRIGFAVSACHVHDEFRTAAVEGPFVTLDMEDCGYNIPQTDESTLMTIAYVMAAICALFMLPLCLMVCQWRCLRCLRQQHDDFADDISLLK

Row | SMILES | IC50 ([1]; Homo sapiens, HEK293, 24 h) [nM] | IC50 (BACE1) [nM] | IC50 [1] [nM]
1 | C=CCC(NC(C)=O)C(O)CNC1CC2(CC(O)C2)Oc2ccc(Br)cc21 [Example 117, N-((1S)-1-((1R)-2-(((2r,3′R,4S)-6-bromo-3′-hydroxy-3,4-dihydrospiro[chromene-2,1′-cyclobutan]-4-yl)amino)-1-hydroxyethyl)-3-buten-1-yl)acetamide] |  | 419 | 1290
2 | C=CC[C@H](NC(C)=O)[C@H](O)CN[C@H]1CC2(CCC2)Oc2c1cc(CC(C)(C)C)nc2N(C)C [Example 45, N-((1S)-1-((1R)-2-(((4′S)-8′-(dimethylamino)-6′-(2,2-dimethylpropyl)-3′,4′-dihydrospiro[cyclobutane-1,2′-pyrano[2,3-c]pyridin]-4′-yl)amino)-1-hydroxyethyl)-3-buten-1-yl)acetamide] | 6340 | 905 | 
3 | C=CC[C@H](NC(=O)c1cccc2c1OCO2)[C@H](O)CN[C@H]1CC2(CCC2)Oc2ncc(CC(C)(C)C)cc21 [Example 103, N-((1S)-1-((1R)-2-(((4′S)-6′-(2,2-dimethylpropyl)-3′,4′-dihydrospiro[cyclobutane-1,2′-pyrano[2,3-b]pyridin]-4′-yl)amino)-1-hydroxyethyl)-3-buten-1-yl)-1,3-benzodioxole-4-carboxamide] | 2540 | 216 | 
4 | C=CC[C@H](NC(=O)c1ccno1)[C@H](O)CN[C@H]1CC2(CCC2)Oc2ncc(CC(C)(C)C)cc21 [Example 93, N-((1S)-1-((1R)-2-(((4′S)-6′-(2,2-dimethylpropyl)-3′,4′-dihydrospiro[cyclobutane-1,2′-pyrano[2,3-b]pyridin]-4′-yl)amino)-1-hydroxyethyl)-3-buten-1-yl)-5-isoxazolecarboxamide] |  | 43 | 
5 | C=CC[C@H](NC(C)=O)[C@H](O)CN[C@H]1CC2(CCC2)Oc2ccc(CC(C)(C)C)cc21 [Example 33, N-((1S)-1-((1R)-2-(((4S)-6-(2,2-dimethylpropyl)-3,4-dihydrospiro[chromene-2,1′-cyclobutan]-4-yl)amino)-1-hydroxyethyl)-3-buten-1-yl)acetamide] |  | 212 | 
6 | CC(=O)N[C@H]([C@H](O)CN[C@H]1CC2(CCC2)Oc2ncc(CC(C)(C)C)cc21)C(C)(C)C [Example 81, N-((1S)-1-((1R)-2-(((4′S)-6′-(2,2-dimethylpropyl)-3′,4′-dihydrospiro[cyclobutane-1,2′-pyrano[2,3-b]pyridin]-4′-yl)amino)-1-hydroxyethyl)-2,2-dimethylpropyl)acetamide] |  | 21400 | 
7 | CCC[C@H](NC(C)=O)[C@H](O)CN[C@H]1C[C@@]2(CC[C@@H]2O)Oc2ncc(CC(C)(C)C)cc21 [Example 54, N-((1S)-1-((1R)-2-(((1R,2S,4′S)-6′-(2,2-dimethylpropyl)-2-hydroxy-3′,4′-dihydrospiro[cyclobutane-1,2′-pyrano[2,3-b]pyridin]-4′-yl)amino)-1-hydroxyethyl)butyl)acetamide] |  | 18600 | 
8 | C=CC[C@H](NC(C)=O)[C@H](O)CN[C@H]1CC2(CCC2)Oc2ncc(C[C@H](C)C(F)(F)F)cc21 [Example 122, N-((1S)-1-((1R)-1-hydroxy-2-(((4′S)-6′-((2S)-3,3,3-trifluoro-2-methylpropyl)-3′,4′-dihydrospiro[cyclobutane-1,2′-pyrano[2,3-b]pyridin]-4′-yl)amino)ethyl)-3-buten-1-yl)acetamide] |  | 322 | 
9 | CC=CC[C@H](NC(=O)[C@H]1CCC(=O)O1)[C@H](O)CN[C@H]1C[C@]2(C[C@H](F)C2)Oc2ncc(CC(C)(C)C)cc21 [Example 108, (2R)-N-((1S)-1-((1R)-2-(((1s,3S,4′S)-6′-(2,2-dimethylpropyl)-3-fluoro-3′,4′-dihydrospiro[cyclobutane-1,2′-pyrano[2,3-b]pyridin]-4′-yl)amino)-1-hydroxyethyl)-3-penten-1-yl)-5-oxotetrahydro-2-furancarboxamide] |  |  | 95

Further lines, results first:

Row | IC50 ([1]; Homo sapiens, HEK293, 24 h) [nM] | IC50 (BACE1) [nM] | IC50 [1] [nM] | SMILES
10 | 633 | 79 |  | C=CC[C@H](NC(=O)[C@@H](F)C(F)(F)F)[C@H](O)CN[C@H]1CC2(CCC2)Oc2ncc(CC(C)(C)C)cc21 [Example 137, (2R)-N-((1S)-1-((1R)-2-(((4′S)-6′-(2,2-dimethylpropyl)-3′,4′-dihydrospiro[cyclobutane-1,2′-pyrano[2,3-b]pyridin]-4′-yl)amino)-1-hydroxyethyl)-3-buten-1-yl)-2,3,3,3-tetrafluoropropanamide]
11 |  | 8220 |  | C=CC[C@H](NC(C)=O)[C@H](O)CN[C@H]1C[C@@]2(CC[C@@H]2O)Oc2ncc(CC(C)(C)C)cc21 [Example 53, N-((1S)-1-((1R)-2-(((1R,2S,4′S)-6′-(2,2-dimethylpropyl)-2-hydroxy-3′,4′-dihydrospiro[cyclobutane-1,2′-pyrano[2,3-b]pyridin]-4′-yl)amino)-1-hydroxyethyl)-3-buten-1-yl)acetamide]
12 |  | 302 |  | C=CCC(NC(=O)COC)C(O)CNC1CC2(CC(C#N)C2)Oc2ncc(CC(C)(C)C)cc21 [Example 113, N-((1S)-1-((1R)-2-(((1r,3S,4′S)-3-cyano-6′-(2,2-dimethylpropyl)-3′,4′-dihydrospiro[cyclobutane-1,2′-pyrano[2,3-b]pyridin]-4′-yl)amino)-1-hydroxyethyl)-3-buten-1-yl)-2-(methyloxy)acetamide]
13 |  | 84 |  | C=CC[C@H](NC(=O)[C@H]1CCCO1)[C@H](O)CN[C@H]1CC2(CCC2)Oc2ncc(CC(C)(C)C)cc21 [Example 92, (2R)-N-((1S)-1-((1R)-2-(((4′S)-6′-(2,2-dimethylpropyl)-3′,4′-dihydrospiro[cyclobutane-1,2′-pyrano[2,3-b]pyridin]-4′-yl)amino)-1-hydroxyethyl)-3-buten-1-yl)tetrahydro-2-furancarboxamide]
14 |  | 412 |  | C=CC[C@H](NC(=O)COC)[C@H](O)CN[C@H]1CC2(CCC2)Oc2ncc(C[C@@H](C)C(F)(F)F)cc21 [Example 124, N-((1S)-1-((1R)-1-hydroxy-2-(((4′S)-6′-((2R)-3,3,3-trifluoro-2-methylpropyl)-3′,4′-dihydrospiro[cyclobutane-1,2′-pyrano[2,3-b]pyridin]-4′-yl)amino)ethyl)-3-buten-1-yl)-2-(methyloxy)acetamide]
15 |  | 61 |  | C=CC[C@H](NC(=O)COC)[C@H](O)CN[C@H]1CC2(CCC2)Oc2ccc(CC(C)(C)C)cc21 [Example 34, N-((1S)-1-((1R)-2-(((4S)-6-(2,2-dimethylpropyl)-3,4-dihydrospiro[chromene-2,1′-cyclobutan]-4-yl)amino)-1-hydroxyethyl)-3-buten-1-yl)-2-(methyloxy)acetamide]
16 |  | 70 |  | C=CC[C@H](NC(C)=O)[C@H](O)CN[C@H]1C[C@]2(CC[C@H]2O)Oc2ncc(CC(C)(C)C)cc21 [Example 52, N-((1S)-1-((1R)-2-(((1S,2R,4′S)-6′-(2,2-dimethylpropyl)-2-hydroxy-3′,4′-dihydrospiro[cyclobutane-1,2′-pyrano[2,3-b]pyridin]-4′-yl)amino)-1-hydroxyethyl)-3-buten-1-yl)acetamide]
17 |  | 177 |  | C=CC[C@H](NC(=O)COC)[C@H](O)CN[C@H]1CC2(CCC2)Oc2ncc(C[C@H](C)C(F)(F)F)cc21 [Example 123, N-((1S)-1-((1R)-1-hydroxy-2-(((4′S)-6′-((2S)-3,3,3-trifluoro-2-methylpropyl)-3′,4′-dihydrospiro[cyclobutane-1,2′-pyrano[2,3-b]pyridin]-4′-yl)amino)ethyl)-3-buten-1-yl)-2-(methyloxy)acetamide]
18 |  | 147 |  | C=CC[C@H](NC(=O)COC)[C@H](O)CNC1CC2(CCC2)Oc2ncc(CC(C)C)cc21 (stereo partly drawn) [Example 39, N-((1S)-1-((1R)-1-hydroxy-2-((6′-(2-methylpropyl)-3′,4′-dihydrospiro[cyclobutane-1,2′-pyrano[2,3-b]pyridin]-4′-yl)amino)ethyl)-3-buten-1-yl)-2-(methyloxy)acetamide]
19 |  | 378 |  | C=CCC(NC(C)=O)C(O)CNC1CC2(CC(C#N)C2)Oc2ncc(CC(C)(C)C)cc21 [Example 114, N-((1S)-1-((1R)-2-(((1r,3S,4′S)-3-cyano-6′-(2,2-dimethylpropyl)-3′,4′-dihydrospiro[cyclobutane-1,2′-pyrano[2,3-b]pyridin]-4′-yl)amino)-1-hydroxyethyl)-3-buten-1-yl)acetamide]
